The values that follow come from patent publication US8119691B2, “Method for treating airway hyper-responsiveness with lipoxin analogs” (National Institutes of Health (NIH), priority 2001, dated 2012).

For data set [1] the following is noted: cited from earlier work.
The subject of the next data set is OVA sensitized mice. In words: Airway responsiveness to intravenous methacholine (lung resistance, ED200) in OVA sensitized and aerosol challenged mice. The format is in vivo, mouse (BALB/c). The procedure:
FIG. 1. Inhibition of airway hyper-responsiveness with LXa. OVA sensitized mice were treated with LXa ([…]) (o) or vehicle (•) prior to OVA aerosol challenge. Airway reactivity was determined by methacholine-dependent change in lung resistance (a) and calculation of ED200 (b). Results are expressed as mean±SEM (n≧17 in (a) and n≧6 (b)). *P<0.05 by Student's t-test compared to control animals.
After systemic sensitization to ovalbumin (OVA, 10 μg i.p.), male Balb/c mice (5-7 weeks) were exposed to aerosolized OVA (6%, 25 min) on four successive days. 24 hours after the last aerosol, bronchial responsiveness to intravenous methacholine was determined (as in refs. 14, 15), bronchoalveolar lavage was performed and tissues were harvested for microscopy. […] After allergen sensitization and aerosol challenge, high levels of both CysLT (139.0+/−27.3 pg CysLT/ml, mean+/−SEM, n=9) and PGE2 (1117.7+/−103.8 pg PGE2/ml, mean+/−SEM, n=5) in bronchoalveolar lavage (BAL) (Table 1) were identified. In these same BAL fluids, LXA4 was also present (15.0+/−3.3 pg LXA4/ml, mean+/−SEM, n=5) at levels similar to LTB4 (6.4+/−2.3 pg LTB4/ml, mean+/−SEM, n=9), but in 10- to 100-fold lower concentrations than CysLT's and PGE2, respectively (Table 1). LXA4 was not detected in cell-free BAL supernatants from non-immunized mice.
(§1) Sensitization and challenge protocols. Five to seven week old male BALB/c (Charles River Laboratories, Wilmington, Mass.) or female hCD11b-hALX FvB transgenic mice were housed in isolation cages under viral antibody-free conditions. After Harvard Medical Area IRB approval (Protocol #02570), mice were sensitized with intraperitoneal injections of ovalbumin (OVA) (Grade III; Sigma Chemical Co., St. Louis, Mo.) (10 μg) plus 1 mg aluminum hydroxide (ALUM) (J.T. Baker Chemical Co.; Phillipsburg, N.J.) as adjuvant in 0.2 ml PBS on days 0 and 7. […] On day 18, 24 h after the last aerosol challenge, airway responsiveness to intravenous methacholine (33-1000 μg/kg) was measured, bilateral bronchoalveolar lavage (BAL) (2 aliquots of 1 ml PBS plus 0.6 mM EDTA) was performed and tissues (whole blood, lungs, mediastinal lymph nodes and spleen) were harvested for histological analysis. Lung resistance (RL) was measured using a sealed constant mass plethysmograph. […] For mice studied using a whole body plethysmograph to assess airway responsiveness (Buxco), each mouse was placed into a chamber and box pressure/time waveform was analyzed to yield the indicator of airflow obstruction, enhanced pause (Penh). […] Readings were initiated at 3 min and continued for 12 min. Peak and one min average Penh values were determined. Serum total IgE levels were determined by ELISA (Crystal Chem, Chicago, Ill.). […]

The subject of data set [2] is OVA sensitized and challenged mice. Nature of the data set: Leukocytes in bronchoalveolar lavage fluid (Wright-Giemsa stain) of OVA sensitized and challenged mice. The data set is classed as in vivo, mouse (BALB/c). The conditions noted are these: LXa i.v. The procedure: FIG. 3. […] Bronchoalveolar lavage fluids were obtained from OVA sensitized and challenged mice. Leukocytes in bronchoalveolar lavage fluid were enumerated and identified after Wright-Giemsa stain (a). Mediator profile of (b) specific cytokines (IL-5, IL-12, IL-13, eotaxin and TNFα), and lipid mediators, including PGE2 (c), LTB4 and cysLT's (d) were determined by ELISA's in materials from control animals and those receiving LXa (10 μg, i.v.). Results are expressed as mean±SEM (n≧6, d≧2). *P<0.05 by Student's t-test compared to control animals.
as §1, with “conditions.” for “conditions. After Harvard Medical Area IRB approval (Protocol #02570), mice were sensitized with intraperitoneal injections of ovalbumin (OVA) (Grade III; Sigma Chemical Co., St. Louis, Mo.) (10 μg) plus 1 mg aluminum hydroxide (ALUM) (J.T. Baker Chemical Co.; Phillipsburg, N.J.) as adjuvant in 0.2 ml PBS on days 0 and 7.”
Allergen-initiated respiratory inflammation. Measurement of inflammatory mediators was determined in cell-free BAL fluid (2000 g, 10 min) by sensitive and specific ELISA's, in tandem, for interleukin-5 (IL-5), IL-13, eotaxin, tumor necrosis factor (TNFα) (R&D Systems, Minneapolis, Minn.), LTB4, cysteinyl LT, PGE2 (Cayman Chemical Co., Ann Arbor, Mich.), and LXA4 (Neogen, Lexington, Ky.). […]

SMILES strings stand for the structures.

For `COC(=O)CCC[C@H](O)[C@H](O)/C=C/C=C/C=C\C=C\[C@H](O)COc1ccc(F)cc1` [LXa, 15-epi,16-para-fluoro-phenoxy-LXA4-methyl ester], in data set [1], the metabolic inactivation entry is given as “resists metabolic inactivation”. In addition, the ED200 to methacholine result with OVA sensitized mice (LXa 10 μg i.v., OVA sensitized and challenged mice) was “approximated the responses of control mice that had been sensitized but not challenged with OVA”. Moreover, the “ED200 to methacholine, LXa administration alone” value in the data set on OVA sensitized mice (LXa alone, compared to control mice) is “no significant differences in ED200 compared to control mice”. Further, the “bronchoconstriction in response to methacholine (change in lung resistance)” value with OVA sensitized mice (LXa i.v. at least 60 min prior to OVA challenge, OVA sensitized mice) is listed as “significantly inhibited bronchoconstriction in response to methacholine in a dose-dependent manner”. The “deleterious physiologic or behavioral effects” value in the data set with OVA sensitized mice (LXa treated mice) is reported as “Neither deleterious physiologic nor behavioral effects were evident”. Besides, in data set [2], the BAL eosinophils result is listed as “sharply reduced in a dose-dependent fashion”, the BAL lymphocytes result is “sharply reduced in a dose-dependent fashion” and the BAL total leukocytes entry was “sharply reduced in a dose-dependent fashion”.
